Data reported in PubChem BioAssay AID2305 (GlaxoSmithKline (GSK), 2010).

tested on: P. falciparum 3D7 growth, pLDH absorbance; experiment: blood-stage malaria parasite growth potency – strain 3D7, dose response (AID 2305)

Structure (SMILES)	IC50 [nM]
Cc1cccc(Oc2cccc3[nH]nc(N)c23)c1	1040
CCn1cc(CN2C(=O)C(c3ccccc3)(c3ccccc3)N=C2N)cn1	820
COc1ccc(Nc2nccc(-c3ccc(NC(=O)c4cc5cc(F)ccc5[nH]4)cc3)n2)cc1	630
COC(=O)c1cccc(CNCc2cccc(-c3ccc(-c4nc5ccccc5[nH]4)cc3)c2)c1	350
CN(C)c1ccc(OCCCCCCOc2ccccc2)cc1	500
CCCCCc1ccc(NC(=O)Nc2ccc(Cn3ncc(N4CCCNCC4)c(Cl)c3=O)cc2)cc1	1140
NC1CCN(Cc2cccc(-c3csc(-c4nc5ccccc5[nH]4)c3)c2)C1 (centres undefined)	890
O=C(O)c1ccc2nc(-c3ccc(-c4ccccc4)cc3)n(C3CCN(Cc4ccc(-c5ncc[nH]5)cc4)CC3)c2c1	1730
O=C(/C=C/c1ccc(Cl)c(Cl)c1)N1CCC(CN2CCC(c3c(Br)[nH]c4ccccc34)CC2)CC1	290
O=C(Nc1ccc(Cl)cc1Cl)NC1CCN(CCCCCNC(=O)[C@@H]2C[C@H]2c2ccc(Cl)c(Cl)c2)CC1	370
COc1ccc(CC(=O)Nc2ccc(Nc3nc(C)cc(N4CCCC4)n3)cc2)cc1	1110
O=C(CCCCCNC(=O)c1ccc(O)c(-c2ccc(Cl)c(Cl)c2)c1)NC1CCCc2ccccc21 (centres undefined)	760
CN(C)c1ccc(C=C2SC(=N)N(c3nccs3)C2=O)cc1	460
Cc1cc(NCc2ccc(F)cc2)nc2cc(O)ccc12	760
CN(C)c1ccc(CN2CCC(CNC(=O)c3cc(-c4ccccc4Cl)cs3)C2)cc1 (centres undefined)	1440
O=C(c1ccc(-c2cccc(-c3nc4ccc(C(F)(F)F)cc4[nH]3)c2)cc1)N1CCCCC1CN1CCC(O)C1 (centres undefined)	650
O=S(=O)(Nc1ccc(-c2ccc(CN3CCCC3)cc2)cc1)c1cccc2cccnc12	1020
COc1cccc([C@@H](CC(=O)Nc2cc(C(F)(F)F)ccc2OC)Nc2ccc(C#N)c3ccccc23)c1	990
COc1cc(OC)cc(C(=O)Nc2ccc(Nc3nc(C)cc(N(C)C)n3)cc2)c1	650
NC(=O)c1cccc(Nc2nccc(Nc3ccc(Oc4cccc(Cl)c4)c(Cl)c3)n2)c1	1280
CN(c1cc(NC(=O)c2ccc(F)cc2)ccn1)C1CCN(Cc2cccc(C#N)c2)CC1	830
CC1CC(C)CN(CC(O)CNC(=O)Nc2ccc(Br)cc2)C1 (centres undefined)	1050
Cc1cc(=O)c2cc(Oc3ccc(OC(F)(F)F)cc3)ccc2[nH]1	990
CC(C)N1CCC(N(Cc2ccc(-c3ccc(C(F)(F)F)cc3)cc2)C(=O)Cn2c(SCc3cccc(F)c3F)cc(=O)c3c2CCC3)CC1	1160
Brc1cc(Br)c2c(c1)C(NCCCNC1CCNc3c(Br)cc(Br)cc31)CCN2 (centres undefined)	820

Structure (SMILES)	IC50 [nM]
N#Cc1ccc(NC(=O)c2ccc(Cc3ccc4c(c3)CCN(C3CCC3)CC4)cn2)cc1	1120
O=C(NCc1cccc(F)c1)Nc1cccc(-c2cccc(-c3nc4ccc(C(F)(F)F)cc4[nH]3)c2)c1	330
COc1ccc(NC(=O)[C@H](Cc2ccccc2)Nc2cc(C)nc(NCCc3cccnc3)n2)cc1	760
CCOC(=O)c1ccc(NC(=O)Nc2ccc(-c3cccc(-c4nc5c(C)cccc5[nH]4)c3)cc2)cc1	140
CN1CCCN(Cc2ccc(-c3ccc(NC(=O)c4ccc(Cl)cc4)cc3)cc2)CC1	900
CCN(CCN(C)C)Cc1ccc(-c2ccc(NS(=O)(=O)c3cccc(Cl)c3)cc2)cc1	520
COC(=O)c1ccc(CC(C)NCC(O)c2ccc(C(O)CNC(C)Cc3ccc(C(=O)OC)cc3)cc2)cc1 (centres undefined)	1030
CCCc1cc(N2CCC(c3ccccc3)(N3CCCCC3)CC2)nc(Nc2ccc(OC)cc2)n1	1090
FC(F)(F)c1ccc2nc(-c3ccc(-c4cccc(CNCCN5CCNCC5)c4)s3)[nH]c2c1	1040
Cc1cccc(C(=O)Nc2ccnc(N(C)CCCN(C)Cc3cccc(C#N)c3)c2)c1	1320
Cc1c(CNCCCNc2cc(=O)c3ccccc3[nH]2)sc(C(F)F)c1Br	870
CN1CC=C(c2c[nH]c3ccc(Br)cc23)CC1	1190
CC(Sc1nc2sccc2c(=O)n1C)C(=O)Nc1ccc2c(c1)OCO2 (centres undefined)	1040
O=C(Nc1cccc(-c2ccc(CN3CCCC3)cc2)c1)c1cccc(Cl)c1	430
Cc1cc(NN=Cc2ccccc2Cl)c2cc(C(F)(F)F)ccc2n1	860
COc1ccc(C(=O)CC(=O)c2ccc(OC)cc2OC)c(OC)c1	300
O=c1cc(-c2cccc(C(F)(F)F)c2)nc(Nc2ccc(Cl)c(Cl)c2)[nH]1	760
OC(CNc1cccc(Cl)c1)Cn1c2ccc(Cl)cc2c2cc(Cl)ccc21 (centres undefined)	960
O=C(Nc1cccc(OC2CCN(Cc3ccsc3)CC2)c1)c1ccc(C(F)(F)F)cc1	770
CN(C)c1ccc(NC2=NC(C)(C)N=C(N)N2)cc1	220
COc1ccc(-c2nc(NC(=O)CS(=O)(=O)c3ccc(F)cc3)sc2C)cc1	240
COc1cc(C)nc2ccc(NC(=O)COCC(=O)Nc3ccc4nc(C)cc(OC)c4c3)cc12	920
CN(C)CCOc1cc(NC(=O)Nc2ccc(Oc3ccccc3)cc2)ccc1I	890
Cc1cc(N2CCCN(CC3CCCCC3)CC2)nc(Nc2ccc(Br)cc2)n1	940
